Experimental findings from the METLIN SMRT retention time set (Domingo-Almenara et al. 2019) are described below.

This data set is described as follows: gradient 5% acetonitrile 3 min, to 50% in 2 min, to 85% in 15 min, held 3 min, 100 µL/min. Conditions: column: Zorbax Extend-C18 2.1 x 50 mm; eluents: water / acetonitrile, 0.1% formic acid. The procedure, abridged: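 Retention times come from adduct peaks that were picked computationally and then checked by hand. The standards, pure and pooled in mixtures of ~100 molecules, were run on a Zorbax Extend-C18 column (2.1 × 50 mm, 1.8 μm) at 100 μL/min with water and acetonitrile, each with 0.1% formic acid. Detection was by quadrupole time-of-flight mass spectrometry in positive and negative ionization mode, with a dead volume of 40 μL and a dwell volume of 900 μL.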
`O=C1CCCc2c1cc(C(=O)Nc1ccc(Cl)cc1)c(=O)n2-c1ccc(F)cc1` yielded an RP-LC retention time of 1060 s.
Take `CC(=O)N(Cc1nn(C)c2c1CN(S(=O)(=O)c1ccccc1F)CC2)c1ccccc1`: the RP-LC retention time was 779 s.
To `CS(=O)(=O)N(C1CCOCC1)C1CCN(S(=O)(=O)Cc2ccccc2)CC1` belongs 779 s.
`O=C(Cc1cccs1)NC1CCN(c2cc(N3CCCC3)cnn2)C1` (configuration not stated) gave an RP-LC retention time of 608 s.
To `O=C(Cn1c(C(F)(F)F)nc2cc3c(cc21)OCCO3)Nc1ccccc1` belongs 867 s.
To `O=C(NCc1ccc(F)cc1F)c1cn2cc(Cl)ccc2n1` belongs 858 s.
To `Cc1ccc(Nc2c(-c3ccc(N(C)C)cc3)nc3cnccn23)c(C)c1` belongs 962 s; to `O=C(Nc1ccccc1NC(=O)c1ccccc1C(F)(F)F)c1ccsc1`, 830 s.
`O=C(Cn1nc(C(=O)N2CCCC2)c2ccccc21)NCCc1cccs1` had an RP-LC retention time of 775 s.
To `O=C1COc2c(CCNCCN(C(=O)CCNCCc3ccc(Cl)c(Cl)c3)C3CCCCC3)ccc(O)c2N1` belongs 691 s; to `COCCCNC(=O)C1CCC(=O)N(c2ccc(OC)cc2)C1c1ccc(F)cc1` (configuration not stated), 609 s.
To `COc1ccccc1CCC(=O)N1CCn2c(C)nnc2C1` belongs 607 s; to `Fc1ccc(-c2csc(Cc3nc(-c4ccccc4Cl)no3)n2)cc1`, 1260 s.
On to `O=C(Nc1cccc(Cl)c1)N1CCN(c2ncc(C(F)(F)F)cc2Cl)CC1`, for which the RP-LC retention time was determined as 1190 s.
`O=C(NCCc1ccco1)c1cc2n(n1)CCCN(Cc1cccc(F)c1)C2=O` displayed an RP-LC retention time of 751 s.
To `COc1cccc(C2Cn3nnc(-c4nc(-c5ccc(OC(C)C)cc5)no4)c3CO2)c1` (configuration not stated) belongs 1250 s; to `O=C(NCC1CCN(C(=O)COc2ccccc2)CC1)c1ccccc1C(F)(F)F`, 753 s; to `CC1(C)Cc2cccc(OCC(=O)NCC3CN(c4ccccc4)C(=O)O3)c2O1` (configuration not stated), 796 s.
`COCCCn1c(=O)c2ccccc2n(Cc2nc(-c3ccc(OC)cc3OC)no2)c1=O` showed an RP-LC retention time of 884 s.
To `CCn1nccc1-c1cccc(-c2noc(C3CC(=O)N(c4cccc(Cl)c4)C3)n2)c1` (configuration not stated) belongs 1090 s; to `Cc1ccc(C(=O)Nc2nccnc2C(=O)NCC2CCCO2)cc1` (configuration not stated), 808 s.
With `Cc1nc2ccn(Cc3cccs3)c(=O)c2cc1C(=O)N1CCOCC1`, the RP-LC retention time amounted to 648 s.
To `COc1ccc(-c2nc(C3CC(=O)N(c4ccc(F)c(Cl)c4)C3)no2)c(OC)c1` (configuration not stated) belongs 1000 s.
`CCC(=O)Nc1ccc(SCc2cc(C)ccc2C)nn1` gave an RP-LC retention time of 919 s.
In turn, `CCn1cc(CCNS(=O)(=O)Cc2ccccc2Cl)c2cccnc21` displayed an RP-LC retention time of 804 s.
Turning to `O=C1Nc2cc(S(=O)(=O)NCCC3=CCCCC3)ccc2SC1C(=O)N1CCCC1` (configuration not stated), the RP-LC retention time came to 858 s.
`Cc1ccc(-n2nc3c(N4CCCC(C(=O)N5CCOCC5)C4)nnc(C)c3c2C)cc1` (configuration not stated) yielded an RP-LC retention time of 736 s.
To `CC1Oc2ccc(-c3csc(NC(=O)C(C)(C)C)n3)cc2NC1=O` (configuration not stated) belongs 856 s.
`CCN1C(=O)c2cccnc2Sc2cc(NC(=O)C3CCC3)ccc21`: the RP-LC retention time is 745 s.
To `Cc1cc(C2CCCN2C(=O)c2c(-c3ccccc3Cl)noc2C)on1` (configuration not stated) belongs 816 s; to `Cc1c(C(=O)C(=O)Nc2ccc3c(c2)OCCO3)c2ccccc2n1C`, 861 s.
Turning to `COc1ccc(CNC(=O)Cn2nc3c(N4CCCCCC4)nccn3c2=O)cc1`, the RP-LC retention time turned out to be 679 s.
